These results are taken from US8846698B2, “Pyrrolo[2,3-d]pyrimidine tropomysin-related kinase inhibitors” (Pfizer Limited, priority 2011, dated 2014).

The IC50 is the midpoint of a concentration-inhibition curve.

In the assay the target is TRKA (Homo sapiens (Human), UniProt P04629). Put plainly: Isolated TRK enzyme assay (HTRF KinEASE-TK), TRKA. It is filed as biochemical. As to conditions: read-out: Trka enzyme (IC50). For orientation: In TR-FRET formats the signal depends on donor and acceptor labels being close together.
TRKA, sequence (P04629 441-796): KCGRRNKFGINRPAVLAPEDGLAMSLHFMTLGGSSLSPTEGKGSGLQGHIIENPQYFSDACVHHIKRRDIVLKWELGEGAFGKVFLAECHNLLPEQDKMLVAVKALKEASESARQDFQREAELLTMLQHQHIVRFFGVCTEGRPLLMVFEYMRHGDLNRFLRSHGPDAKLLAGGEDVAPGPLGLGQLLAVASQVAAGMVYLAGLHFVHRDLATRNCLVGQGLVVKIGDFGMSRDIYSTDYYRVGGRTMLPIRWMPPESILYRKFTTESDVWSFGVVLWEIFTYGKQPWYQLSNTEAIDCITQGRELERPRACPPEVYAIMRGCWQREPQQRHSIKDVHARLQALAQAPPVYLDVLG
Take `CC(C)(CO)n1cc(C(=O)c2cncc(NC(=O)Cc3cccc(C(F)(F)F)c3)c2)c2cncnc21` [Example 226, N-(5-{[7-(2-hydroxy-1,1-dimethylethyl)-7H-pyrrolo[2,3-d]pyrimidin-5-yl]carbonyl}pyridin-3-yl)-2-[3-(trifluoromethyl)phenyl]acetamide]: the IC50 was 3.61 nM.
As to `CC(C)c1cn(CC(=O)Nc2cncc(C(=O)c3cn(C(C)(C)CO)c4ncncc34)c2)nn1` [Example 227, N-(5-{[7-(2-hydroxy-1,1-dimethylethyl)-7H-pyrrolo[2,3-d]pyrimidin-5-yl]carbonyl}pyridin-3-yl)-2-(4-isopropyl-1H-1,2,3-triazol-1-yl)acetamide], the IC50 came to 12.5 nM.
With `CC(C)(CO)n1cc(C(=O)c2cncc(NC(=O)Cc3ccc4cccnc4c3)c2)c2cncnc21` [Example 228, N-(5-{[7-(2-hydroxy-1,1-dimethylethyl)-7H-pyrrolo[2,3-d]pyrimidin-5-yl]carbonyl}pyridin-3-yl)-2-quinolin-7-ylacetamide], the IC50 came out at 14.9 nM.
For the compound `CC(CO)(CO)n1cc(C(=O)c2cncc(NC(=O)Cc3ccc(C#N)cc3)c2)c2cncnc21` [Example 232, 2-(4-Cyanophenyl)-N-[5-({7-[2-hydroxy-1-(hydroxymethyl)-1-methylethyl]-7H-pyrrolo[2,3-d]pyrimidin-5-yl}carbonyl)pyridin-3-yl]acetamide], the IC50 was found to be 274 nM.
For `CC(CO)(CO)n1cc(C(=O)c2cncc(NC(=O)Cc3ccc4cccnc4c3)c2)c2cncnc21` [Example 233, N-[5-({7-[2-hydroxy-1-(hydroxymethyl)-1-methylethyl]-7H-pyrrolo[2,3-d]pyrimidin-5-yl}carbonyl)pyridin-3-yl]-2-quinolin-7-ylacetamide], the IC50 is 96.5 nM.
Under `Cc1cc(C(F)(F)F)nn1CC(=O)Nc1cncc(C(=O)c2cn(C(C)(CO)CO)c3ncncc23)c1` [Example 234, N-[5-({7-[2-hydroxy-1-(hydroxymethyl)-1-methylethyl]-7H-pyrrolo[2,3-d]pyrimidin-5-yl}carbonyl)pyridin-3-yl]-2-[5-methyl-3-(trifluoromethyl)-1H-pyrazol-1-yl]acetamide] stands 84.9 nM; under `CC(CO)(CO)n1cc(C(=O)c2cncc(NC(=O)Cc3ccc(Cl)cc3)c2)c2cncnc21` [Example 235, 2-(4-chlorophenyl)-N-[5-({7-[2-hydroxy-1-(hydroxymethyl)-1-methylethyl]-7H-pyrrolo[2,3-d]pyrimidin-5-yl}carbonyl)pyridin-3-yl]acetamide], 70.5 nM.
Turning to `CC(CO)(CO)n1cc(C(=O)c2cncc(NC(=O)Cc3ccc(C(F)(F)F)cc3)c2)c2cncnc21` [Example 236, N-[5-({7-[2-hydroxy-1-(hydroxymethyl)-1-methylethyl]-7H-pyrrolo[2,3-d]pyrimidin-5-yl}carbonyl)pyridin-3-yl]-2-[4-(trifluoromethyl)phenyl]acetamide], the IC50 came out at 25.2 nM.
For `CC(CO)(CO)n1cc(C(=O)c2cncc(NC(=O)Cc3ccc(Cl)cn3)c2)c2cncnc21` [Example 237, 2-(5-chloropyridin-2-yl)-N-[5-({7-[2-hydroxy-1-(hydroxymethyl)-1-methylethyl]-7H-pyrrolo[2,3-d]pyrimidin-5-yl}carbonyl)pyridin-3-yl]acetamide] the value was 73.9 nM; for `CC(CO)(CO)n1cc(C(=O)c2cncc(NC(=O)Cc3cccc(C(F)(F)F)c3)c2)c2cncnc21` [Example 238, N-[5-({7-[2-hydroxy-1-(hydroxymethyl)-1-methylethyl]-7H-pyrrolo[2,3-d]pyrimidin-5-yl}carbonyl)pyridin-3-yl]-2-[3-(trifluoromethyl)phenyl]acetamide], 9.36 nM; for `CC(CO)(CO)n1cc(C(=O)c2cncc(NC(=O)Cn3ccc(C(F)(F)F)n3)c2)c2cncnc21` [Example 239, N-[5-({7-[2-hydroxy-1-(hydroxymethyl)-1-methylethyl]-7H-pyrrolo[2,3-d]pyrimidin-5-yl}carbonyl)pyridin-3-yl]-2-[3-(trifluoromethyl)-1H-pyrazol-1-yl]acetamide], 22.6 nM.
